Square brackets hold non-standard residues; d marks the D form. Ends that are not written are not given here. Peptide text beside a SMILES is read from it.
Legend:
bleomycin-treated mice [1] = test: Bleomycin-induced lung and skin fibrosis, treatments delivered by pump; type: in vivo; conditions: for bleomycin-induced lung fibrosis (Ashcroft score): treatment by pump over two weeks after one week bleomycin, n=6
Protocol: Experiments were conducted to examine the effect of unmodified CSD subdomains on lung and skin fibrosis. […] Pumps containing bleomycin or saline vehicle were implanted subcutaneously into mice. After one week, the pumps had emptied and were replaced with pumps designed to empty over two weeks containing the indicated treatments (n=6 per group). After these two weeks, the mice were sacrificed.
Skin in the vicinity of the pump outlet was harvested for measurement of the thickness of the dermis and the intradermal fat. ^^^p<0.001 for Saline/Vehicle vs Bleo/Vehicle. ***p<0.001, **p<0.01, *p<0.05 for Bleo/Vehicle vs Bleo/Peptide Treatments.

Src = Src (Homo sapiens, UniProt P12931); test: Inhibition of purified kinases; type: biochemical; conditions: purified kinase; nintedanib worked at much lower concentrations
Src, sequence (P12931 whole entry, species assumed): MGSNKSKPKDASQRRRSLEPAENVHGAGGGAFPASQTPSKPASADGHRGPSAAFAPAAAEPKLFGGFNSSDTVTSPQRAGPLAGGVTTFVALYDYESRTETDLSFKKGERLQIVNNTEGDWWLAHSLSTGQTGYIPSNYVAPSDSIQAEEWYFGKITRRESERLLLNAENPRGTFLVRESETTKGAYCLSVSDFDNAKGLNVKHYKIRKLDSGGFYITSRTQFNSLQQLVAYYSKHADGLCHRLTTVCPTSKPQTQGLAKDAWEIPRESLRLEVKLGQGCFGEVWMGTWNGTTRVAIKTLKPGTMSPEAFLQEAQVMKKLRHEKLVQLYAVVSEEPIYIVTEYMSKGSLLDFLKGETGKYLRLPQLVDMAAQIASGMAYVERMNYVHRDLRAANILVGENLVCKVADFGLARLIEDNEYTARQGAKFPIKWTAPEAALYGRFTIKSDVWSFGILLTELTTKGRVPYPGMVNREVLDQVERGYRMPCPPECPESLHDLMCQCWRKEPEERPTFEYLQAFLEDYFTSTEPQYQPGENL

PKCε = molecular target: T1, PKCε (Homo sapiens, UniProt Q02156); test: Inhibition of purified kinases; type: biochemical; conditions: purified kinase
T1 sequence (Q02156 1-737): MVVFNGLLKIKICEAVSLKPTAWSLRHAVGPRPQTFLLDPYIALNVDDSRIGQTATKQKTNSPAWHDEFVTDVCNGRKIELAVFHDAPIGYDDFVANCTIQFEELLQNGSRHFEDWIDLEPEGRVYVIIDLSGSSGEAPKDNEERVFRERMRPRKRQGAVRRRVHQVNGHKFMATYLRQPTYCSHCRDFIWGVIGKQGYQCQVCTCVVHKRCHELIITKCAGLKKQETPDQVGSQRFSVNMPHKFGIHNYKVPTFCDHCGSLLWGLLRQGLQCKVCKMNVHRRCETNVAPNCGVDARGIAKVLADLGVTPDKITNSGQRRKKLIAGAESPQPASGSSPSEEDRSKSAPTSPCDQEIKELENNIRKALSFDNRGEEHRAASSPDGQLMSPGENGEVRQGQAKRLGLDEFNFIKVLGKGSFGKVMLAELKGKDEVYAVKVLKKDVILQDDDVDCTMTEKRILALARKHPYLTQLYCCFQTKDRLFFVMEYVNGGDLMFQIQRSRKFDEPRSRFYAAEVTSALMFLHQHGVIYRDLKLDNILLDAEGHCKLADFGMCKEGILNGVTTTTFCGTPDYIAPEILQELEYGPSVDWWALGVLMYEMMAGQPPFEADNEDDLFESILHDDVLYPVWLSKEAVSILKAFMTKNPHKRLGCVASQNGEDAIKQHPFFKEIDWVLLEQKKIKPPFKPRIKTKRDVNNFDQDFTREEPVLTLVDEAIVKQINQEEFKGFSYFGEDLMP

VEGFR2 = VEGFR2 (Homo sapiens, UniProt P35968); test: Inhibition of purified kinases; type: biochemical; conditions: purified kinase; nintedanib worked at much lower concentrations
VEGFR2, sequence (P35968 20-1356, species assumed): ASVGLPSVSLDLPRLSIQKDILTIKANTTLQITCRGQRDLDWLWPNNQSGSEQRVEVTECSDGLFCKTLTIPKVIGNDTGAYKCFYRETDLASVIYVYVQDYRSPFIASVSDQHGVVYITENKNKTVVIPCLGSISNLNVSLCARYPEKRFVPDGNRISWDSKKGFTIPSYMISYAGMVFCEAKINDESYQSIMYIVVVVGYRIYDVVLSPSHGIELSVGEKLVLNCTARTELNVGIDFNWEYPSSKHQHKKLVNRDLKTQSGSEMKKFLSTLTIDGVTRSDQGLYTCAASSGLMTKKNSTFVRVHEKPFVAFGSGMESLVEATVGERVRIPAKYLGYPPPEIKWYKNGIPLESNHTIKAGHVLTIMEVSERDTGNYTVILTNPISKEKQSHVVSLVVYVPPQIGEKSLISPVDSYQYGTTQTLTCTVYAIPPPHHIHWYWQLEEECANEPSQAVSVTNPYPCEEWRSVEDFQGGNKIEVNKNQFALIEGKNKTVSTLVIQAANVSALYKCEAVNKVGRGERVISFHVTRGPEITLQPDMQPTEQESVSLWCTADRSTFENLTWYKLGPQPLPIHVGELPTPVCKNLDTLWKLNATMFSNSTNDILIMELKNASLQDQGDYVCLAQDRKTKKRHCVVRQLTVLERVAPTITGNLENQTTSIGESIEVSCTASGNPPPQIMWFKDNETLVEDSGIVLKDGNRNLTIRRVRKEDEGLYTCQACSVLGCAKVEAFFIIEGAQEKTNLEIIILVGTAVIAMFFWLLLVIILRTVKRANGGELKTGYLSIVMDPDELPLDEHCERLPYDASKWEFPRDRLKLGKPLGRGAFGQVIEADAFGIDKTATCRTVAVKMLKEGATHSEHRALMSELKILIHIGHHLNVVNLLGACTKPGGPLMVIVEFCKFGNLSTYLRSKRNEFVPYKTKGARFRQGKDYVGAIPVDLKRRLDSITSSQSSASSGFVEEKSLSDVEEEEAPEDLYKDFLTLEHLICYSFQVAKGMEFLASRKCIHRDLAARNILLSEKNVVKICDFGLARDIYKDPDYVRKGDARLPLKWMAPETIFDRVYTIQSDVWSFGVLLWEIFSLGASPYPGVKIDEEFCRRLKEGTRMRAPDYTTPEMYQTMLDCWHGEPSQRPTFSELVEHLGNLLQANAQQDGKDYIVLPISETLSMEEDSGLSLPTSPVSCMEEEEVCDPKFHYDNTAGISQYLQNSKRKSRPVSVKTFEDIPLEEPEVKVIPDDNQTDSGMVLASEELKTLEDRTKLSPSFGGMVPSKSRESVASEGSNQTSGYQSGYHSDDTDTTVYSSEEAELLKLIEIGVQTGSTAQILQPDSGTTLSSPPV

cMet = cMet (Homo sapiens, UniProt P08581); test: Inhibition of purified kinases; type: biochemical; conditions: purified kinase
cMet, sequence (P08581 25-1390): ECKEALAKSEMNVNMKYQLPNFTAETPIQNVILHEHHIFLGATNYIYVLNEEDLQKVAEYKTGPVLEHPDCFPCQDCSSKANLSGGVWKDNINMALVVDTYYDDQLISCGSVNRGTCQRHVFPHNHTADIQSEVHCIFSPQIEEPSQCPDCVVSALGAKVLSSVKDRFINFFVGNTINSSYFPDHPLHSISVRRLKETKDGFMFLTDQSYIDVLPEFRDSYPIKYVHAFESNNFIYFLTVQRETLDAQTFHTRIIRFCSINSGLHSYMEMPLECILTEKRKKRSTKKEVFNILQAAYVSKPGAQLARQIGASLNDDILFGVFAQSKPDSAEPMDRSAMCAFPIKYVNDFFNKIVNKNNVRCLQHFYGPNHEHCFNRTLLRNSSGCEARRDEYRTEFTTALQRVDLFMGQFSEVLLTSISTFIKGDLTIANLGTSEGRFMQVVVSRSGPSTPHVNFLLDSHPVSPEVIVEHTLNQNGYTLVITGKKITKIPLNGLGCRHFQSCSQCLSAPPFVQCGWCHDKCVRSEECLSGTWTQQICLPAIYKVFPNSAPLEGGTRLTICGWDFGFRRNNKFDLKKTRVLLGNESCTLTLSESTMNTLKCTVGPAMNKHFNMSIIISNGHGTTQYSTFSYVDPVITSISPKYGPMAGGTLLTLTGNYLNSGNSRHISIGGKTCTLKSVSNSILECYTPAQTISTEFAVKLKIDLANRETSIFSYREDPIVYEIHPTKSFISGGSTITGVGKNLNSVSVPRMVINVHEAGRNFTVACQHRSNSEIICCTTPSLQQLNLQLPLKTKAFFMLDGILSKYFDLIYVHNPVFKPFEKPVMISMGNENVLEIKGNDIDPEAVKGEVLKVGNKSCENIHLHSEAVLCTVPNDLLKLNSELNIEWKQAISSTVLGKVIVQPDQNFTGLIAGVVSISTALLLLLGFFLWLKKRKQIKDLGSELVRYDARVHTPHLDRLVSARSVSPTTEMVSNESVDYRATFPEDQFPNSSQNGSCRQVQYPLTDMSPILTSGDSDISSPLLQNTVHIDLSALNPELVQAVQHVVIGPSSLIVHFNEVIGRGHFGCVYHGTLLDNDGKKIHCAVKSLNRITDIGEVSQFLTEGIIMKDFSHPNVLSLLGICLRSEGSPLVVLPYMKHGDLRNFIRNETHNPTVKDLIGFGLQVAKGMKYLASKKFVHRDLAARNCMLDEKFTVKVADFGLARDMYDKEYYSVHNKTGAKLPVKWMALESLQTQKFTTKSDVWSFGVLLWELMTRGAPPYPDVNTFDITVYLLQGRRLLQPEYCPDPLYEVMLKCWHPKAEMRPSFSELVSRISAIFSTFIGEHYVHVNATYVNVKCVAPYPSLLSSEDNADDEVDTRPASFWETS

PDGFRβ = PDGFRβ (Homo sapiens, UniProt P09619); test: Inhibition of purified kinases; conditions: purified kinase
PDGFRα = PDGFRα (Homo sapiens, UniProt P16234); test: Inhibition of purified kinases; conditions: purified kinase
PDGFRα, sequence (P16234 24-1089, species assumed): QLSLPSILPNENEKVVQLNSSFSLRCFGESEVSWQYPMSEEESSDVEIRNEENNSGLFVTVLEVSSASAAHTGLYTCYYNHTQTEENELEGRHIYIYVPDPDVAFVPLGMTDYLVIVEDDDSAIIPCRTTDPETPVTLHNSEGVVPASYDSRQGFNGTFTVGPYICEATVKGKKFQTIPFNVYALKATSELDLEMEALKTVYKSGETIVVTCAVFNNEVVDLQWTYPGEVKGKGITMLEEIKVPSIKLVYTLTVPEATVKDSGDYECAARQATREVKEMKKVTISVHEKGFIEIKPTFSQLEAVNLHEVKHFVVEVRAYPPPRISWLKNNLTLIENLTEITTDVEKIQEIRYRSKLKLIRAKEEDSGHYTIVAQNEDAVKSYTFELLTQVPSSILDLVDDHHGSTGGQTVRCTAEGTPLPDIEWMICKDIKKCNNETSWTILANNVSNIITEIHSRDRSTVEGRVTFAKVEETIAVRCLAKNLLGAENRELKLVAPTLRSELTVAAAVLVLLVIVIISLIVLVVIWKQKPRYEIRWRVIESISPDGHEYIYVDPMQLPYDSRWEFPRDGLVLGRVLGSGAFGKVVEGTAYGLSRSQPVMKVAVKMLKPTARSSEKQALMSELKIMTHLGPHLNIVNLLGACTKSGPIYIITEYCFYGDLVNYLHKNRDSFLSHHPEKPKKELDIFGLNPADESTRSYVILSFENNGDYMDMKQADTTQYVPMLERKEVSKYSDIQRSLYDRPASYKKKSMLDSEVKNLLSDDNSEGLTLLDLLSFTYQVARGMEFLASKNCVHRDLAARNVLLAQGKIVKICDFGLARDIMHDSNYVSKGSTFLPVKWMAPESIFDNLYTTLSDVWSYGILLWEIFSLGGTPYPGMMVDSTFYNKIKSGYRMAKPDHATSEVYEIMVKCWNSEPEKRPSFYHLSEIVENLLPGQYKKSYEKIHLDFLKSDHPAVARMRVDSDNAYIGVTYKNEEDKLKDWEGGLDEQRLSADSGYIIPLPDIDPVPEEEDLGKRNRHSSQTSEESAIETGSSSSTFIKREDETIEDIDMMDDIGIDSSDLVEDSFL

PKCα = PKCα (Homo sapiens, UniProt P17252); test: Inhibition of purified kinases; type: biochemical; conditions: purified kinase
VEGFR1 = VEGFR1 (Homo sapiens, UniProt P17948); test: Inhibition of purified kinases; type: biochemical; conditions: purified kinase
TGFβR1 = molecular target: T2, TGFβR1 (Homo sapiens, UniProt P36897); test: Inhibition of purified kinases; type: biochemical; conditions: purified kinase; nintedanib worked at much lower concentrations
T2 sequence (P36897 34-503): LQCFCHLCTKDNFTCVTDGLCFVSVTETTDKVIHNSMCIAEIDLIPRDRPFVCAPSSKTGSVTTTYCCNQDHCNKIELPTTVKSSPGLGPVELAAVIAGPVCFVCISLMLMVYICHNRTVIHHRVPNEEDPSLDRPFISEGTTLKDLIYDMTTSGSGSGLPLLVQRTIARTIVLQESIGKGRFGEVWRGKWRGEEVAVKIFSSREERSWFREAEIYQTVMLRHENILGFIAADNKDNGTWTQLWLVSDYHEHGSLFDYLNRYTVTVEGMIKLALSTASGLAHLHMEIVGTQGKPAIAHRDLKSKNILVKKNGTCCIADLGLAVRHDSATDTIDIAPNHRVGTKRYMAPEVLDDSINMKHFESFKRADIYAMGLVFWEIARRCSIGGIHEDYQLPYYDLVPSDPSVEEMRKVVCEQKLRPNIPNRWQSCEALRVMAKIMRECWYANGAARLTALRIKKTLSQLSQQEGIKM

VEGFR3 = VEGFR3 (Homo sapiens, UniProt P35916); test: Inhibition of purified kinases; type: biochemical; conditions: purified kinase
Ang II-infused mice = test: Angiotensin II-induced congestive heart failure (CHF) model; type: in vivo; conditions: for suppression of AngII-induced fibrosis in the heart (Col I deposition and HSP47 level) / suppression of AngII-induced microvascular leakage in the heart (IgG heavy chain level in the tissue): Western blot; for overall effectiveness of domains in the CHF model (summary of FIGS. 1-7): FIG. 8; for suppression of the effects of AngII on Heart Weight/Body Weight (HW/BW) ratio: young mice (3 months) infused with Ang II two weeks
Protocol: FIG. 1 provides an overview of an experiment using Full-Length CSD, 82-89, 88-95, and 94-101 (SEQ ID NO:1, SEQ ID NO:2, SEQ ID NO:3, and SEQ ID NO:4 respectively).
Young mice (3 months old) infused with Ang II or vehicle for two weeks received daily i.p. injections of CSD, the indicated subdomains or scrambled CSD (0.8 μmol/kg). Mice were evaluated by Echocardiography for changes in posterior wall thickness (pWTh), fractional shortening (FS), cardiac output (CO), ejection fraction (EF), and isovolumic relaxation time (IVRT). Significant changes are shown as ***p<0.001 for Sham+Veh vs AngII+Veh. Significant suppression of AngII-induced changes is shown as ^p<0.05, ^^p<0.01, and ^^^p<0.001 for AngII+Veh vs AngII+CSD or AngII+CSD subdomains. The number of mice used in each treatment are shown in the HW/BW data.
Young mice (3 months old) infused with Ang II or vehicle for two weeks received daily i.p. injections of the indicated subdomains of CSD. The results of a typical experiment for Col I and HSP47 (FIG. 4) and for microvascular leakage (FIG. 5) are shown in Western blots (2 to 3 mice per group). The data are quantified below (n=4). Significant changes are shown as *p<0.05 and **p<0.01 for Sham+Veh vs Ang II+Veh. Significant suppression of Ang II-induced changes by subdomains are shown as ^p<0.05, […], and ^^^p<0.001 for Ang II+Veh vs Ang II+CSD subdomains.
Young mice (3 months old) infused with Ang II or vehicle for two weeks received daily i.p. injections of W82-89. IgG heavy chain (IgGH) leakage and Col I accumulation are shown in Western blots. The actin loading control is present twice because IgGH was analyzed in the supernatant fraction of heart homogenate while Col I is found in the pellet fraction. In the quantitation (n=4), significant changes are shown as **p<0.01 and ***p<0.001 for Sham+Veh vs Ang II+Veh and ^^p<0.01 and ^^^p<0.001 for reversal of AngII-induced changes by W82-89.

bleomycin-treated mice [2] = test: Bleomycin-induced lung and skin fibrosis, daily i.p. WCSD; type: in vivo
Protocol: Pumps containing bleomycin or saline vehicle were implanted subcutaneously into mice. After one week, the pumps had emptied. In addition, mice were injected i.p. daily as indicated, then sacrificed on day 22. All groups contained 4 mice.
Fibrocytes (CD45+/Col I+ cells) were quantified by Flow Cytometry. ECM proteins (Col I, Tenascin C), myofibroblast markers (HSP47, ASMA), and microvascular leakage (IgG Heavy Chain that remained in the tissue after perfusion) were quantified by Western blotting (n=4). Western blot data were quantified densitometrically following normalization to an actin loading control. The value in Saline treated mice was set to 1.0 Arbitrary Unit. ^^p<0.01, ^p<0.05 for Saline/Vehicle vs Bleo/Vehicle; *p<0.05 for Bleo/Vehicle vs Bleo/WCSD.

[3] = young mice infused with Ang II two weeks, daily i.p. injections, echocardiography

Compound: 94-101: CSD subdomain VTKYWFYR-NH2
- bleomycin-induced lung fibrosis (Ashcroft score) (bleomycin-treated mice [1]): suppression

Compound: COC(=O)c1ccc2c(c1)NC(=O)/C2=C(\Nc1ccc(N(C)C(=O)CN2CCN(C)CC2)cc1)c1ccccc1 [nintedanib]
- inhibition of Src (Src): inhibit
- inhibition of PKCε (PKCε): has no effect
- inhibition of VEGFR2 (VEGFR2): inhibit
- inhibition of cMet (cMet): has no effect
- inhibition of PDGFRβ (PDGFRβ): inhibits
- inhibition of PDGFRα (PDGFRα): inhibits
- inhibition of PKCα (PKCα): has no effect
- inhibition of VEGFR1 (VEGFR1): inhibits
- inhibition of TGFβR1 (TGFβR1): inhibit
- inhibition of VEGFR3 (VEGFR3): inhibits

Compound: 82-89: CSD subdomain DGIWKASF-NH2
- activity across all readouts of the bleomycin model (lung, skin, monocyte migration) (bleomycin-treated mice [1]; Example 4 summary): most active of the subdomains tested
- bleomycin-induced lung fibrosis (Ashcroft score) (bleomycin-treated mice [1]): suppression
- suppression of AngII-induced fibrosis in the heart (Col I deposition and HSP47 level) (Ang II-infused mice; daily i.p. injections): significant beneficial effect
- suppression of AngII-induced microvascular leakage in the heart (IgG heavy chain level in the tissue) (Ang II-infused mice; daily i.p. injections): almost completely suppressed
- overall effectiveness of domains in the CHF model (summary of FIGS. 1-7) (Ang II-infused mice): active
- suppression of the effects of AngII on Heart Weight/Body Weight (HW/BW) ratio (Ang II-infused mice; daily i.p. injections): essentially equally effective as 88-95
- suppression of the effects of AngII on Ejection Fraction (EF), Fractional Shortening (FS), Isovolumic Relaxation Time (IVRT) (Ang II-infused mice; [3]): significant beneficial effect

Compound: CC[C@H](C)[C@H](NC(=O)CNC(=O)[C@H](CC(=O)O)NC(=O)[C@@H](CCCCN)NC(=O)[C@@H](CCCCN)NC(C)=O)C(=O)N[C@@H](Cc1c[nH]c2ccccc12)C(=O)N[C@@H](CCCCN)C(=O)N[C@@H](C)C(=O)N[C@@H](CO)C(=O)N[C@@H](Cc1ccccc1)C(=O)N[C@H](C(=O)N[C@H](C(=O)N[C@@H](Cc1ccccc1)C(=O)N[C@H](C(=O)N[C@H](C(=O)N[C@H](C(=O)N[C@@H](CCCCN)C(=O)N[C@@H](Cc1ccc(O)cc1)C(=O)N[C@@H](Cc1c[nH]c2ccccc12)C(=O)N[C@@H](Cc1ccccc1)C(=O)N[C@@H](Cc1ccc(O)cc1)C(=O)N[C@@H](CCCNC(=N)N)C(=O)N[C@H](CCCCN)C(=O)N[C@H](CCCCN)C(N)=O)[C@@H](C)O)C(C)C)[C@@H](C)O)[C@@H](C)O)[C@@H](C)O [WCSD] (Ac-[dK][dK]DGIWKASFTTFTVTKYWFYR[dK][dK]-NH2)
- fibrocytes (CD45+/Col I+ cells) in lung (bleomycin-treated mice [2]; Flow Cytometry): almost completely suppressed by WCSD down to the levels in control, saline-treated mice
- bleomycin-induced loss of the transdermal adipose layer in the skin (bleomycin-treated mice [2]; WCSD treatment beginning on day 8): suppresses the almost complete loss of the transdermal adipose layer
- ECM proteins (Col I, Tenascin C) in lung (bleomycin-treated mice [2]; Western blotting, n=4): almost completely suppressed by WCSD down to the levels in control, saline-treated mice
- microvascular leakage (IgG Heavy Chain remaining in the tissue after perfusion) in lung (bleomycin-treated mice [2]; Western blotting, n=4): almost completely suppressed by WCSD down to the levels in control, saline-treated mice
- myofibroblast markers (HSP47, ASMA) in lung (bleomycin-treated mice [2]; Western blotting, n=4): almost completely suppressed by WCSD down to the levels in control, saline-treated mice
- survival (bleomycin-treated mice [2]; bleomycin pump, daily i.p. WCSD): outstanding beneficial effect on survival
- lung fibrosis and inflammatory cell infiltration (histology) (bleomycin-treated mice [2]; bleomycin, treatment also delayed until day 8): suppressed by WCSD even when treatment is delayed until day 8

Compound: 88-95: CSD subdomain SFTTFTVT-NH2
- bleomycin-induced lung fibrosis (Ashcroft score) (bleomycin-treated mice [1]): suppression
- suppression of AngII-induced fibrosis in the heart (Col I deposition and HSP47 level) (Ang II-infused mice; daily i.p. injections): most effective CSD subdomain
- suppression of AngII-induced microvascular leakage in the heart (IgG heavy chain level in the tissue) (Ang II-infused mice; daily i.p. injections): almost completely suppressed
- overall effectiveness of domains in the CHF model (summary of FIGS. 1-7) (Ang II-infused mice): most effective Dimethyl sulfoxide (DMSO)-solubilized domain tested
- suppression of the effects of AngII on Heart Weight/Body Weight (HW/BW) ratio (Ang II-infused mice; daily i.p. injections): most effective CSD subdomain
- suppression of the effects of AngII on Ejection Fraction (EF), Fractional Shortening (FS), Isovolumic Relaxation Time (IVRT) (Ang II-infused mice; [3]): most effective CSD subdomain
- suppression of the effects of AngII on Left Ventricle (LV) Mass and Posterior Wall Thickness (pWTh) (Ang II-infused mice; [3]): most effective CSD subdomain
